Assay results reported in US9545395B2, “Method and composition for enhancement of male erectile function” (priority 2008, dated 2017).

Tested on: male erectile function (penis)
Assay: Clinical observations and case reports (Patients A-G): erectile response of men after local or systemic application
Format: in vivo, man
Settings: for persistence of improvements after the last injection: after last IGF1 injection
[1] = Patient C, severe erectile dysfunction, maximal doses, before treatment
[2] = Patient C, maximal oral doses with daily topical androgens
[3] = Patient D, maximal oral doses combined with intracavernosal injections, before local IGF1
[4] = Patient D, oral medication without intracavernosal injections, after local IGF1
[5] = Patient D, oral medications, baseline
[6] = Patient G, oral medication, baseline
[7] = Patient E, four weekly IGF1 injections plus 2.5% testosterone cream

## CN1CC(=O)N2[C@H](c3ccc4c(c3)OCO4)c3[nH]c4ccccc4c3C[C@@H]2C1=O [Cialis]
[1]
  erectile response: not having any erections
[2]
  erectile response: still could not function
[3]
  erectile response: frequently going soft during intercourse
[4]
  erectile response: getting usable erections
[5]
  erectile response: not responding
[6]
  erectile response: not able function sexually

## CCCc1nc(C)c2c(=O)[nH]c(-c3cc(S(=O)(=O)N4CCN(CC)CC4)ccc3OCC)nn12 [Levitra]
[1]
  erectile response: not having any erections
[2]
  erectile response: still could not function
[3]
  erectile response: frequently going soft during intercourse
[4]
  erectile response: getting usable erections
[5]
  erectile response: not responding
[6]
  erectile response: not able function sexually

## C[C@]12CC[C@H]3[C@@H](CCC4=CC(=O)CC[C@@]43C)[C@@H]1CC[C@@H]2O [Testosterone]
Patient B, 10 mg Testosterone + 6 mcg LR3 IGF1 + 6 mcg PGE1 IC, 2-3 times per week
  erectile function after about a month: able to have sexual intercourse without any medications
Patient B, 10 mg Testosterone added to IC mixture of 6 mcg LR3 IGF1 plus 6 mcg PGE1, 2-3 times per week
  erectile response: dramatically harder and firmer erections

## CCCc1nn(C)c2c(=O)[nH]c(-c3cc(S(=O)(=O)N4CCN(C)CC4)ccc3OCC)nc12 [Viagra]
[1]
  erectile response: not having any erections
[2]
  erectile response: still could not function
[3]
  erectile response: frequently going soft during intercourse
[4]
  erectile response: getting usable erections
[5]
  erectile response: not responding
[6]
  erectile response: not able function sexually

## CCCCC[C@H](O)/C=C/[C@H]1[C@H](O)CC(=O)[C@@H]1CCCCCCC(=O)O [prostaglandin E1]
Patient A (person one), 1.5 ug prostaglandin E1 intracavernosally alone
  erection firmness: 70-75%
Patient B, venous leakage, 6 ug prostaglandin E1 intracavernosally alone
  erection firmness: 60%
Patient B, 6 ug prostaglandin E1 intracavernosally alone
  duration of erection: about 30 mins
Patient C, maximum doses of PGE1 40 ug/ml plus triple mix papavarine, atropine, phentolamine
  erectile response: unable to obtain a usable erection

## Growth Hormone: Growth Hormone injections daily (Human Growth Hormone)
Patient D, daily Growth Hormone injections, 1 year
  erectile function: did not report a significant improvement in their erectile function

## IGF1: IGF-1 (Somatomedin-C), full length protein of 70 amino acids in a single chain with three intramolecular disulfide bridges
Patient C, 10-20 ug IGF-1 or 6-10 ug LR3 IGF1 sub-cutaneously plus topical 1% testosterone gel, 3-4 times per week, one month
  erectile response: erections dramatically improved
Patient D, after penile and intracavernosal IGF1 (5-10 ug combined with intracavernosal injections)
  reduction of intracavernosal medication dose: over 50%
Patient D, some of the daily 50-100 ug IGF1 injections applied intermittently into the penis
  erectile function: immediately experienced improved erectile function
Patient D, systemic IGF1 50-100 ug/day subcutaneously in abdomen, with intracavernosal meds
  erectile response: not getting adequate erections
Patient E
  persistence of improvements after the last injection: persisted for several weeks
[7]
  duration of erection after an intracavernosal injection: over 40 minutes
  hardness of erection after an intracavernosal injection: over 80%
Patient E, four weekly subcutaneous IGF1 injections into penis shaft plus 2.5% testosterone cream twice daily
  erectile function: dramatically improved the patient's erectile function
Patient G
  persistence of improvements after the last injection: persist for several weeks
Patient G, twice weekly subcutaneous 25 ug IGF1 into penis shaft, after Dihydrotestosterone cream
  erectile function: immediately began experiencing firmer spontaneous erections
Men relying on PDE5's, higher locally applied penile doses
  time to functional erections without the need for PDE5's: 1-2 weeks
Men who had used only a couple of doses, essentially gone after a month
  time after discontinuation until improvement noticeably started weakening: 1-2 weeks
men, 50-100 μg once per week sub-cutaneously or subdermally in the penis
  erectile function: dramatic improvement in their erectile function
